The target of assay [1] is T1, α5β1-fibronectin (Homo sapiens, UniProt P05556+P08648).
T1 construct: host or cells: K562 wild type
In words: Adhesion of wild-type K562 cells to immobilized fibronectin. It is filed as cell-based. The protocol:
(§1) Cell adhesion assay was carried out as previously described[47] with minor modifications. The day before the experiment, each well was coated with VCAM-1 (3 mg/mL) immobilized on the 96-well plate in PBS by overnight incubation at 4 °C. Thereafter, nonspecific binding was blocked by incubating the wells with 1% (w/v) bovine serum albumin (BSA) in Hank’s Balanced Salt Solution (HBSS) containing 5 mM MgCl2 at room temperature for 1 h before use. The cells were labeled by incubation with 12.5 μM 5-chloromethylfluorescein diacetate (CMFDA) in HBSS without 1% BSA at 37 °C for 30 min. The labeled cells were then centrifuged at 1000 rpm and washed twice with HBSS containing 1% BSA to remove excess CMFDA. Labeled cells (about 1 × 10^5 cells/well) were plated on each well in the presence or absence of visabrons and incubated at 37 °C for 60 min. Unbound cells were removed by washing the wells three times with 1% (w/v) BSA in HBSS, and bound cells were lysed by the addition of 0.5% Triton X-100 (diluted in DDW). The fluorescence in each well was quantified with a SPECTRAFluor Plus plate reader (Tecan), at λex = 485 nm and λem = 530 nm. To determine the number of adhered cells from the fluorescence values, a standard curve was generated by serial dilution of known numbers of CMFDA-labeled cells. […]
(§2) Table S6. TMLD- linear peptides inhibition of adhesion of integrin expressing cells to the respective immobilized ligands a a The cells were incubated for 30 min at 37 °C with the cells (1 x 105) in the 96 -well plate, previously covered with extracellular matrix ligand, in 100 µL of HBSS containing calcium and magnesium. After being washed with the same buffer, the adhered cells were lysed by Triton X-100, and the plate was read using Tecan spectrofluorimeter. The inhibitory dose 50% (IC 50) values represent ing mean ± standard deviatio ns (n=6) were calculated from dose response curves. bJurkat cells,VCAM -1; c α9-SW480 overexpressing cells, VCAM-1; d α1-K562 overexpressing cells, collagen IV ;e α2-K562 overexpressing cells, collagen I; f K562 wild type

For assay [2], the target named is T2, α4β1-VCAM-1 Fc chimera (Homo sapiens, UniProt P05556+P13612).
T2 construct: purchased R&D Systems Co (Minneapolis, MN)
In words: ELISA solid-phase ligand-receptor binding, integrin α4β1 to VCAM-1 Fc chimera. The protocol:
(§3) Recombinant human VCAM-1 and MadCAM-1 (3 mg/mL in phosphate-buffered saline containing divalent cations), were immobilized on the wells of a 96-well ELISA plate (Dynatech Immulon) by overnight incubation at 4 °C. After washing with HBSST (Hanks’ Balanced Salt solution containing calcium and magnesium and 0.05% Tween-20) the plates were blocked with 5% BSA in HBSST by incubation at 37 °C for 1 h. The plates were washed with HBSST, and recombinant human integrin α4β1 or α4β7 (3 mg/mL) was added in the presence or absence of competitor cyclic peptides, disintegrins, or monoclonal anti-integrin antibodies dissolved in HBSS containing 1% BSA. The plates were thereafter incubated at 30 °C for 3 h, as time-binding had reached a plateau, and then washed 3 times with HBSST. Bound integrins were quantitated using primary anti-integrin polyclonal and monoclonal antibodies at a concentration of 0.5 mg/mL in HBSST containing 1% BSA, and incubated at 37 °C for 1 h. The plates were washed 3 times with HBSST and secondary antibodies- alkaline phosphatase (AP) conjugated (Sigma Co.) were added at dilution 1:1000 and incubated at 37 °C for 1 h. Thereafter, the plates were washed 3 times with HBSST and twice with HBSS and the alkaline phosphatase substrate 4-nitrophenyl phosphate was added to the wells for 30 min. The plates were read using Tecan Spectrophotometer at 405 nm. The level of nonspecific binding was measured in each experiment by determining the level of binding to wells coated with BSA alone.

Assay [3] has as its target T3, α4β1 (Jurkat lymphocytes-VCAM-1) (Homo sapiens, UniProt P05556+P13612).
T3 construct: host or cells: Jurkat (untreated or TNFα-treated)
In words: Adhesion of Jurkat lymphocytes to immobilized VCAM-1. It is filed as cell-based. The protocol: as §1, §2

Assay [4] concerns the target T4, α2β1-collagen I (Homo sapiens, UniProt P05556+P17301).
T4 construct: expressed in transfected cells; host or cells: K562 transfected with α2 integrin (gift of Dr. M. Hemler)
In words: Adhesion of α2-K562 overexpressor cells to immobilized collagen I. It is filed as cell-based. The protocol: as §1, §2

Assay [5] deals with T5, α1β1-collagen IV (Homo sapiens, UniProt P05556+P56199).
T5 construct: expressed in transfected cells; host or cells: K562 transfected with α1 integrin (gift of Dr. M. Hemler)
In words: Adhesion of α1-K562 overexpressor cells to immobilized collagen IV. The format is cell-based. As to the method:
as §1, §2

Assay [6] has as its target α9β1-VCAM-1 Fc chimera (Homo sapiens, UniProt P05556+Q13797). In words: ELISA binding assay, α9β1 to VCAM-1 Fc chimera. (In general: In an ELISA, binding on a coated surface is turned into a signal by an enzyme label.)
Assay [7] has as its target T6, α4β7-MAdCAM-1 Fc chimera (Homo sapiens, UniProt P13612+P26010).
T6 construct: purchased R&D Systems Co (Minneapolis, MN)
In words: ELISA solid-phase ligand-receptor binding, integrin α4β7 to MAdCAM-1 Fc chimera. The protocol:
as §3

Assay [8] has as its system U937 macrophages-VCAM-1 (α4β1, αMβ2, α3β1, α6β1). Kind of assay: Adhesion of U937 macrophages to immobilized VCAM-1. The format is cell-based, human. The protocol:
Cell adhesion assay was carried out as previously described[47] with minor modifications. The day before the experiment, each well was coated with VCAM-1 (3 mg/mL) immobilized on the 96-well plate in PBS by overnight incubation at 4 °C. Thereafter, nonspecific binding was blocked by incubating the wells with 1% (w/v) bovine serum albumin (BSA) in Hank’s Balanced Salt Solution (HBSS) containing 5 mM MgCl2 at room temperature for 1 h before use. The cells were labeled by incubation with 12.5 μM 5-chloromethylfluorescein diacetate (CMFDA) in HBSS without 1% BSA at 37 °C for 30 min. The labeled cells were then centrifuged at 1000 rpm and washed twice with HBSS containing 1% BSA to remove excess CMFDA. Labeled cells (about 1 × 10^5 cells/well) were plated on each well in the presence or absence of visabrons and incubated at 37 °C for 60 min. Unbound cells were removed by washing the wells three times with 1% (w/v) BSA in HBSS, and bound cells were lysed by the addition of 0.5% Triton X-100 (diluted in DDW). The fluorescence in each well was quantified with a SPECTRAFluor Plus plate reader (Tecan), at λex = 485 nm and λem = 530 nm. To determine the number of adhered cells from the fluorescence values, a standard curve was generated by serial dilution of known numbers of CMFDA-labeled cells.

In assay [9] the target is T7, α9β1 (Homo sapiens, UniProt P05556+Q13797).
T7 construct: generated by transfection with full-length α9 expression plasmid pcDNAIneoa9; expressed in transfected cells; host or cells: SW480 transfected with pcDNAIneoa9
In words: Adhesion of α9-SW480 overexpressing cells to VCAM-1. The format is cell-based. To be noted: n=6, Table S6, read-out: IC50 α9β1 (linear peptides). As to the method: as §2, with “type […]” for “type”
(1 picture or pasted object on this page, not shown here)

[10] abbreviates: wild-type K562 (α5β1), 30 min at 37 °C, read-out: IC50 α5β1-fibronectin.
[11] abbreviates: Jurkat treated with TNF-α (10 ng/mL) for 24 h, read-out: IC50 Jurkat lymphocytes-VACAM-1 TNFα.
Setting [12] is: untreated Jurkat lymphocytes (α4β1), read-out: IC50 Jurkat lymphocytes-VACAM-1 control.
Setting [13] is: α2-K562 overexpressed cells, 30 min at 37 °C, read-out: IC50 α2β1-collagen I.
Setting [14] is: α1-K562 overexpressed cells, 30 min at 37 °C, read-out: IC50 α1β1-collagen IV.
[15] abbreviates: K562 wild type cells, fibronectin, n=6, Table S6, read-out: IC50 α5β1 (linear peptides).
The mark [16] stands for this setting: Jurkat cells, VCAM-1, n=6, Table S6, read-out: IC50 α4β1 (linear peptides).
Setting [17] is: α2-K562 overexpressing cells, collagen I, n=6, Table S6, read-out: IC50 α2β1 (linear peptides).
[18] abbreviates: α1-K562 overexpressing cells, collagen IV, n=6, Table S6, read-out: IC50 α1β1 (linear peptides).

Structures are written as SMILES. Read-outs that look alike come from different tables or passages of the source. Numbered stars: 1 amine (or outer) side, 2 acyl side, 3 side chain; on linkers, the order of the positions; unused ones are H or OH. Bridge positions count the residues as written; N and C are the ends. Square brackets hold non-standard residues; d marks the D form. Peptide text beside a SMILES is read from it. N(6-aminohexyl)Gly = O=C(CN(CCCCCCN[*:3])[*:1])[*:2]; CO = O=C([*:1])[*:2]; Nlys = NCCCCNCC(=O)O

T1 sequence (P08648 42-894 limits assumed): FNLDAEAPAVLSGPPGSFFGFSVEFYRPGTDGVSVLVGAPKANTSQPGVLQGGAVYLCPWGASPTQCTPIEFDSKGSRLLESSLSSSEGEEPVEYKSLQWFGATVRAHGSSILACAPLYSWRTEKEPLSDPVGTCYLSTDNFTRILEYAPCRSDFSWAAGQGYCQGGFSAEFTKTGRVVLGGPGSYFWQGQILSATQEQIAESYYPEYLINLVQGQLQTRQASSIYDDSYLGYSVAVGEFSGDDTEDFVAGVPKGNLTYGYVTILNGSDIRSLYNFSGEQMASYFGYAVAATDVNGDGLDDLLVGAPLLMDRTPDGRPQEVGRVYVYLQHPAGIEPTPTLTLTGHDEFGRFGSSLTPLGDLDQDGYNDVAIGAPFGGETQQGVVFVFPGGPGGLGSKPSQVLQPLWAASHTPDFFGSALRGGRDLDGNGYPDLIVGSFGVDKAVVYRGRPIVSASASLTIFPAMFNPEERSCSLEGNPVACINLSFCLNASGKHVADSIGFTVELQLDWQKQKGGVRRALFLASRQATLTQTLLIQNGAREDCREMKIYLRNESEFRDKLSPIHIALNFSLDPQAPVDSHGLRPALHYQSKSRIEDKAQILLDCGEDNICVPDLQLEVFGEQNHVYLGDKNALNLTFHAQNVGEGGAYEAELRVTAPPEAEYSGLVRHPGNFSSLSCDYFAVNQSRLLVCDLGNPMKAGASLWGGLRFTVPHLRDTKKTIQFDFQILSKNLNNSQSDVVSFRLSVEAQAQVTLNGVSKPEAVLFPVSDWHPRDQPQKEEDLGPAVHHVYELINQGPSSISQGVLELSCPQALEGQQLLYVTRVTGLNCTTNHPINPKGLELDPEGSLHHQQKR
T1 sequence (P08648 895-1049 limits assumed): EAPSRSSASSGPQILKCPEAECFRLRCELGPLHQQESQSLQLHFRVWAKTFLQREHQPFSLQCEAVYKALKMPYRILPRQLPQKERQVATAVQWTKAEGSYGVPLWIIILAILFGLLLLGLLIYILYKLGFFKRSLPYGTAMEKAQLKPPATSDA
T1 sequence (P05556 21-798): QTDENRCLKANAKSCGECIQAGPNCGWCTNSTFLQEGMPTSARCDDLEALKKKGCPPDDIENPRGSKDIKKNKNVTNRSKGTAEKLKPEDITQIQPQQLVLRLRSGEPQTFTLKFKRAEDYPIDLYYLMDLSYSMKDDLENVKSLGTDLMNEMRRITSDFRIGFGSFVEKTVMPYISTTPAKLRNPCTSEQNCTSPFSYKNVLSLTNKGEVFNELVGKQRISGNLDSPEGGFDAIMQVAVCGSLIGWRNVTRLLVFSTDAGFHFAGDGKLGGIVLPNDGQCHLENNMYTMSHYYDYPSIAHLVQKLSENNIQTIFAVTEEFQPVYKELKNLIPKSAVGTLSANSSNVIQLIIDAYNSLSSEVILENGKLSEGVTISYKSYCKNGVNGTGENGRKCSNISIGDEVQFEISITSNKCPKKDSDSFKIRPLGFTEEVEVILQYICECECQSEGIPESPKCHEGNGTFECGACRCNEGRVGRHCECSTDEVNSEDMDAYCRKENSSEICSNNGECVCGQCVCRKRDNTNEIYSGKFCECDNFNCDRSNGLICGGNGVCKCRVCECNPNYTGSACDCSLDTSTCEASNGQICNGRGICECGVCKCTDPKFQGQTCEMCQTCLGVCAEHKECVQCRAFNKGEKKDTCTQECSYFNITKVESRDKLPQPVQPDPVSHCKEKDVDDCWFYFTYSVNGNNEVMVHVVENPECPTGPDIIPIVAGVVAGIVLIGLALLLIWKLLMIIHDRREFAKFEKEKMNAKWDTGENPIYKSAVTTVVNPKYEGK
T5 sequence (P56199 29-1179): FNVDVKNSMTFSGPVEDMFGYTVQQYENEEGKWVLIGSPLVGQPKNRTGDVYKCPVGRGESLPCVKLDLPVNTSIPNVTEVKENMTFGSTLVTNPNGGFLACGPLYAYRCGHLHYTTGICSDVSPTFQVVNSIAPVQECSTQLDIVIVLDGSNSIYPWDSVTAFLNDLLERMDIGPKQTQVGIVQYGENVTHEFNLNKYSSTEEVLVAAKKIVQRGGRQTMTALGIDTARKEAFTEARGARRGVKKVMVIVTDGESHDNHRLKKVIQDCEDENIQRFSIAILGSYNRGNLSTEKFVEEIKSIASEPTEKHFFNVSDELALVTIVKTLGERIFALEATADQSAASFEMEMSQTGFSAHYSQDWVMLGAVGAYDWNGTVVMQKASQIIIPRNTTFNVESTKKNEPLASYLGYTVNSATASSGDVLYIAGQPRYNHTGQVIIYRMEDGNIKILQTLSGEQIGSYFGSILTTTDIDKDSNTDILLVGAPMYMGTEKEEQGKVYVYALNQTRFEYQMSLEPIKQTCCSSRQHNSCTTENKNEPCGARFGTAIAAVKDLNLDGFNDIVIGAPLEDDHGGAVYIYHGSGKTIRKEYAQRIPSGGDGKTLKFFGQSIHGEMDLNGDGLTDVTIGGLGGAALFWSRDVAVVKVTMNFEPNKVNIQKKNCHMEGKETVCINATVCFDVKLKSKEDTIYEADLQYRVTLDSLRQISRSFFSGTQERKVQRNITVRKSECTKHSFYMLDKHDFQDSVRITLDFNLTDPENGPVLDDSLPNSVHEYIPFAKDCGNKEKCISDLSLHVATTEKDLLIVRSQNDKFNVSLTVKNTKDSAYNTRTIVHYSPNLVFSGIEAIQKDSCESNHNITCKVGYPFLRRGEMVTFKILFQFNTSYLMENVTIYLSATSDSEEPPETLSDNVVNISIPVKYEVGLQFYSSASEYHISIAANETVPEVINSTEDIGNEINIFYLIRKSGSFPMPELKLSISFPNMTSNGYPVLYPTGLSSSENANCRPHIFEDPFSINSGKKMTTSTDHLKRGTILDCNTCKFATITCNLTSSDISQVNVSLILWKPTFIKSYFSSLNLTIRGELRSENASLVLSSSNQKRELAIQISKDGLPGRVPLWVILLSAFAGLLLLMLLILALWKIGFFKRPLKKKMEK
T5 sequence (P05556 21-798): as the sequence (P05556 21-798) above
T3 sequence (P13612 34-1032): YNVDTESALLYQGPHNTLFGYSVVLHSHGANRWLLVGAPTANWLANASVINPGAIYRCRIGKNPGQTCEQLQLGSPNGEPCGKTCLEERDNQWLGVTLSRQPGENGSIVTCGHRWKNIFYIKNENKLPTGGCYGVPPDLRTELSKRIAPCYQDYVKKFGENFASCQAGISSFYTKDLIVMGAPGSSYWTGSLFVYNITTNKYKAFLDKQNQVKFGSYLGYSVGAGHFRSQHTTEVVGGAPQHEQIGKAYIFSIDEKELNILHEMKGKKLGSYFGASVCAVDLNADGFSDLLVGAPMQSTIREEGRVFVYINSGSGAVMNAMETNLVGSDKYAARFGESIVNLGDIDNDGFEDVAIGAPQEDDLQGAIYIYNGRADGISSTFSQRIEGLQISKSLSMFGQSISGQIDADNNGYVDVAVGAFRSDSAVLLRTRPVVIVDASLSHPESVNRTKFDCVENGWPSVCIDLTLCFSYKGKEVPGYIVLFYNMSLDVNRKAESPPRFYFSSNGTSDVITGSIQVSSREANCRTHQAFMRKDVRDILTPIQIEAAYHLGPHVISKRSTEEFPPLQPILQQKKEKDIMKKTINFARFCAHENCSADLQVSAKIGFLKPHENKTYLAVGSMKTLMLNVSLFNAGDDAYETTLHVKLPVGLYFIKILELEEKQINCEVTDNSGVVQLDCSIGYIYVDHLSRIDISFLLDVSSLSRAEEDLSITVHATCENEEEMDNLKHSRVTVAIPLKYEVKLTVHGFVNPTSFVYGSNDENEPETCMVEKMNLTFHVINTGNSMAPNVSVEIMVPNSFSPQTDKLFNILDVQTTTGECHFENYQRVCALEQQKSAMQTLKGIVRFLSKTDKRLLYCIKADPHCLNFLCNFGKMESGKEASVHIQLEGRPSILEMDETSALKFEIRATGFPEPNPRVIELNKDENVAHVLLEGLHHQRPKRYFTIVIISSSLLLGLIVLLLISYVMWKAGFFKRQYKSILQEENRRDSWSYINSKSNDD
T3 sequence (P05556 21-798): as the sequence (P05556 21-798) above
T7 sequence (Q13797 30-1035): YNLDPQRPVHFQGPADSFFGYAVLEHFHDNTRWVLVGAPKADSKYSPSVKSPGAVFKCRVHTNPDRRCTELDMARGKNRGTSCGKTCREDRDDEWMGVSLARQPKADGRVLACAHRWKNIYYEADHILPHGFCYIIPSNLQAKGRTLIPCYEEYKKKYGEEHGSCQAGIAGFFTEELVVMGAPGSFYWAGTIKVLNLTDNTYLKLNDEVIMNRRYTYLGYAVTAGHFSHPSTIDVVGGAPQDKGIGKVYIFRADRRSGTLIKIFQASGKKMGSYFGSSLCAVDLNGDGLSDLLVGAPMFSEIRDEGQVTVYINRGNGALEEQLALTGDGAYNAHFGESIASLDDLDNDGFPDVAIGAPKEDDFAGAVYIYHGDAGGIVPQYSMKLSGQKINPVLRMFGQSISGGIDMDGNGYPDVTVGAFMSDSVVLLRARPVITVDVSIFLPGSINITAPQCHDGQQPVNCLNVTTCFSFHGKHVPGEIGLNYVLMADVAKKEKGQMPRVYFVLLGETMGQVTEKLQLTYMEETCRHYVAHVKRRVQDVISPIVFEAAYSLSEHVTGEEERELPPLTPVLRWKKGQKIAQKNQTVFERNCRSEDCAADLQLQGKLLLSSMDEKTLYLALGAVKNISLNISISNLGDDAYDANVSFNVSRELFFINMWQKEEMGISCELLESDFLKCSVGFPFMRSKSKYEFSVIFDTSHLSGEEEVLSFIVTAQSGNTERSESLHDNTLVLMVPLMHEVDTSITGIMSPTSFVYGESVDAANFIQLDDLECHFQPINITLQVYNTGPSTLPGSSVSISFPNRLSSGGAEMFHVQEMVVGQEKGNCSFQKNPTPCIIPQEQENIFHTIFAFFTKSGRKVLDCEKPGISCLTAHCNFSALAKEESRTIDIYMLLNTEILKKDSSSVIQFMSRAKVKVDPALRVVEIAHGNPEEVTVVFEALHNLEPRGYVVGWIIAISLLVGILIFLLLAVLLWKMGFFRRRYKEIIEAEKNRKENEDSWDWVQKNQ
T7 sequence (P05556 21-798): as the sequence (P05556 21-798) above

On to `CSCC[C@@H]1NC(=O)[C@H]([C@@H](C)O)NC(=O)CN(C(=O)[C@@H](N)CCCNC(=N)N)CCCCNC(=O)NCCCCN(CC(=O)N[C@@H](CC(C)C)C(N)=O)C(=O)[C@H](CC(=O)O)NC(=O)[C@H](CC(C)C)NC1=O` [Arg-visabron c (4–4)] (H-R[Nlys]TMLD[Nlys]L-NH2; linker 2-7 via CO; N-terminus assumed), for which the IC50 was > 10000 µM in [1] (setting [10]); > 10000 µM in [2]; > 5000 µM in [3] (setting [11]); > 5000 µM in [3] (setting [12]); > 10000 µM in assay [4] (setting [13]); > 10000 µM in assay [5] (setting [14]). Further, the IC50 in assay [6] is > 10000 µM.

`CSCC[C@@H]1NC(=O)[C@H]([C@@H](C)O)NC(=O)CN(C(=O)[C@@H](N)CCCCN)CCCCCCNC(=O)NCCCCCCN(CC(=O)N[C@@H](CC(C)C)C(N)=O)C(=O)[C@H](CC(=O)O)NC(=O)[C@H](CC(C)C)NC1=O` [visabron c (6–6)] (H-K[N(6-aminohexyl)Gly]TMLD[N(6-aminohexyl)Gly]L-NH2; linker 2-7 via CO): the IC50 was > 500 µM in [7]; > 10000 µM in assay [1] (setting [10]); 0.7 µM in [2]; 4 µM in [3] (setting [11]); 5 µM in assay [3] (setting [12]); 15 µM in [8] (U937 treated with PMA (10 ng/mL) for 24 h, read-out: IC50 U937 macrophages-VCAM-1 PMA). The IC50 in [8] (untreated U937, read-out: IC50 U937 macrophages-VCAM-1 control) was 20 µM; in assay [4] (setting [13]), > 10000 µM; in [5] (setting [14]), > 10000 µM; in assay [6], 0.9 µM.

As to `CSCC[C@H](NC(=O)[C@H](C)NC(=O)[C@H](CCCNC(=N)N)NC(=O)[C@H](CCCCN)NC(=O)[C@@H](N)CS)C(=O)N[C@@H](CC(C)C)C(=O)N[C@@H](CC(=O)O)C(=O)NCC(=O)N[C@@H](CC(C)C)C(=O)N[C@@H](CC(N)=O)C(=O)N[C@@H](CC(=O)O)C(=O)N[C@@H](Cc1ccc(O)cc1)C(=O)N[C@@H](CS)C(N)=O` [sequence 4, CKRAMLDGLNDYC] (H-CKRAMLDGLNDYC-NH2; N-terminus and C-terminus assumed), the IC50 was > 10000 µM in assay [1] (setting [15]); 3910 ± 80 µM in assay [3] (setting [16]); > 10000 µM in [4] (setting [17]); > 10000 µM in assay [5] (setting [18]); 2840 ± 115 µM in assay [9].

As to `CSCC[C@H](NC(=O)[C@@H](NC(=O)[C@H](CCCNC(=N)N)NC(=O)[C@@H](N)CCCCN)[C@@H](C)O)C(=O)N[C@@H](CC(C)C)C(=O)N[C@@H](CC(=O)O)C(=O)NCC(=O)N[C@@H](CC(C)C)C(N)=O` [sequence 5, KRTMLDGL] (H-KRTMLDGL-NH2; N-terminus and C-terminus assumed), the half-inhibitory concentration (IC50) in [1] (setting [15]) is > 10000 µM; in assay [3] (setting [16]) it was 1310 ± 95 µM; in assay [4] (setting [17]), > 10000 µM; in assay [5] (setting [18]), > 10000 µM; in assay [9], 1260 ± 80 µM.

On to `CSCC[C@H](NC(=O)[C@@H](NC(=O)[C@H](CCCNC(=N)N)NC(=O)[C@H](CCCCN)NC(=O)[C@@H](N)CS)[C@@H](C)O)C(=O)N[C@@H](CC(C)C)C(=O)N[C@@H](CC(=O)O)C(=O)NCC(=O)N[C@@H](CC(C)C)C(=O)N[C@@H](CC(N)=O)C(=O)N[C@@H](CC(=O)O)C(=O)N[C@@H](Cc1ccc(O)cc1)C(=O)N[C@@H](CS)C(N)=O` [sequence 3, CKRTMLDGLNDYC] (H-CKRTMLDGLNDYC-NH2; N-terminus and C-terminus assumed), for which the 50% inhibitory concentration (IC50) was > 10000 µM in [1] (setting [15]); 1450 ± 105 µM in assay [3] (setting [16]); > 10000 µM in assay [4] (setting [17]); > 10000 µM in assay [5] (setting [18]); 1250 ± 95 µM in assay [9].

For orientation: IC50 means the midpoint of a concentration-inhibition curve.

(Values after paper PMC8717366, “Synthesis and Pharmacological Characterization of Visabron, a Backbone Cyclic Peptide Dual Antagonist of α4β1 (VLA-4)/α9β1 Integrin for Therapy of Multiple Sclerosis” (JACS Au, 2021).)
